Experiments:
[1] = Selectivity index, ratio of CC50 for human RD cells to IC50 for Enterovirus D68 infected in human RD cells; assay type: toxicity, cell-based; details: read-out: Selectivity Index
enterovirus D68 = experiment: Antiviral activity against Enterovirus D68 infected in human RD cells assessed as inhibition of viral replication measured after 4 days by Cell Titer-Glo luminescent cell viability assay; assay type: functional, organism-based; details: Enterovirus D, 96 h
[2] = Selectivity index, ratio of CC50 for human RD cells to IC50 for Enterovirus A71 infected in human RD cells; assay type: toxicity, cell-based; details: read-out: Selectivity Index
[3] = (§1) Cytotoxicity against human RD cells assessed as reduction in cell viability by Cell Titer-Glo luminescent cell viability assay; assay type: cell-based; details: RD cells
Enterovirus A71 = experiment: Antiviral activity against Enterovirus A71 infected in human RD cells assessed as inhibition of viral replication measured after 4 days by Cell Titer-Glo luminescent cell viability assay; assay type: functional, organism-based; details: Enterovirus A, 96 h
[4] = Half life in CD-1 mouse assessed as parent NITD008 level at 5 mg/kg, iv by LC-MS/MS analysis; assay type: ADME, organism-based; details: in vivo
[5] = Half life in CD-1 mouse assessed as parent NITD008 level at 25 mg/kg, po by LC-MS/MS analysis; assay type: ADME, organism-based; details: in vivo
[6] = Tmax in CD-1 mouse assessed as parent NITD008 level at 5 mg/kg, iv by LC-MS/MS analysis; assay type: ADME, organism-based; details: in vivo
[7] = Tmax in CD-1 mouse assessed as parent NITD008 level at 25 mg/kg, po by LC-MS/MS analysis; assay type: ADME, organism-based; details: in vivo
[8] = Cmax in CD-1 mouse assessed as parent NITD008 level at 5 mg/kg, iv by LC-MS/MS analysis; assay type: ADME, organism-based; set-up: route intravenous, dose 5 mg/kg; details: in vivo
[9] = Cmax in CD-1 mouse assessed as parent NITD008 level at 25 mg/kg, po by LC-MS/MS analysis; assay type: ADME, organism-based; set-up: route oral, dose 25 mg/kg; details: in vivo
[10] = AUClast in CD-1 mouse assessed as parent NITD008 level at 5 mg/kg, iv by LC-MS/MS analysis; assay type: ADME, organism-based; set-up: route intravenous, time 0 - last, dose 5 mg/kg; details: in vivo
[11] = AUClast in CD-1 mouse assessed as parent NITD008 level at 25 mg/kg, po by LC-MS/MS analysis; assay type: ADME, organism-based; set-up: route oral, time 0 - last, dose 25 mg/kg; details: in vivo
[12] = AUCinf in CD-1 mouse assessed as parent NITD008 level at 5 mg/kg, iv by LC-MS/MS analysis; assay type: ADME, organism-based; set-up: route intravenous, time infinity, dose 5 mg/kg; details: in vivo
[13] = AUCinf in CD-1 mouse assessed as parent NITD008 level at 25 mg/kg, po by LC-MS/MS analysis; assay type: ADME, organism-based; set-up: route oral, time infinity, dose 25 mg/kg; details: in vivo
RD = experiment: as §1; assay type: cell-based; details: rd
[14] = Tmax in CD-1 mouse at 5 mg/kg, iv by LC-MS/MS; assay type: ADME, organism-based; details: in vivo
[15] = Half life in CD-1 mouse at 5 mg/kg, iv by LC-MS/MS; assay type: ADME, organism-based; details: in vivo
[16] = Half life in CD-1 mouse at 25 mg/kg, po by LC-MS/MS; assay type: ADME, organism-based; details: in vivo
[17] = Tmax in CD-1 mouse at 25 mg/kg, po by LC-MS/MS; assay type: ADME, organism-based; details: in vivo
[18] = Cmax in CD-1 mouse at 5 mg/kg, iv by LC-MS/MS; assay type: ADME, organism-based; set-up: route intravenous, dose 5 mg/kg; details: in vivo
[19] = Cmax in CD-1 mouse at 25 mg/kg, po by LC-MS/MS; assay type: ADME, organism-based; set-up: route oral, dose 25 mg/kg; details: in vivo
[20] = AUC ( 0 to last) in CD-1 mouse at 5 mg/kg, iv by LC-MS/MS; assay type: ADME, organism-based; set-up: time 0 - last, route intravenous, dose 5 mg/kg; details: in vivo
[21] = AUC ( 0 to last) in CD-1 mouse at 25 mg/kg, po by LC-MS/MS; assay type: ADME, organism-based; set-up: time 0 - last, route oral, dose 25 mg/kg; details: in vivo
[22] = AUC ( 0 to infinity ) in CD-1 mouse at 5 mg/kg, iv by LC-MS/MS; assay type: ADME, organism-based; set-up: route intravenous, time infinity, dose 5 mg/kg; details: in vivo
[23] = AUC ( 0 to infinity ) in CD-1 mouse at 25 mg/kg, po by LC-MS/MS; assay type: ADME, organism-based; set-up: time infinity, route oral, dose 25 mg/kg; details: in vivo

SMILES | selectivity ratio [1] | IC50 (enterovirus D68) [µM] | selectivity ratio [2] | CC50 [3] [µM] | IC50 (Enterovirus A71) [µM] | CC50 (RD) [µM] | further results
C#C[C@@]1(O)[C@H](O)[C@@H](COP(=O)(N[C@@H](C)C(=O)OCC(C)(C)C)Oc2ccccc2)O[C@H]1n1ccc2c(N)ncnc21 (stereo not given in full) | 57.1 | 0.53 | 77.5 | 30.2 | 0.39 |  | t1/2 [4]: 3.3 h; t1/2 [5]: 4.97 h; Tmax [6]: 1.98 min; Tmax [7]: 0.83 h; Cmax [8]: 1983 ng/mL; Cmax [9]: 165 ng/mL; AUClast [10]: 800 ng·h/mL; AUClast [11]: 722 ng·h/mL; AUC [12]: 833 ng·h/mL; AUC [13]: 744 ng·h/mL
C#C[C@@]1(O)[C@H](O)[C@@H](COP(=O)(N[C@@H](CCSC)C(=O)OC(C)C)Oc2ccccc2)O[C@H]1n1ccc2c(N)ncnc21 (stereo not given in full) | 2.92 | 3.06 | 11.3 | 8.95 | 0.79 |  | 
C#C[C@@]1(O)[C@H](O)[C@@H](COP(=O)(N[C@H](Cc2c[nH]c3ccccc23)C(=O)OC(C)C)Oc2ccccc2)O[C@H]1n1ccc2c(N)ncnc21 (stereo not given in full) | 5.38 | 7.81 | 25.9 | 42 | 1.62 |  | 
C#C[C@@]1(O)[C@H](O)[C@@H](COP(=O)(N[C@@H](C)C(=O)OC2CCCCC2)Oc2ccccc2)O[C@H]1n1ccc2c(N)ncnc21 (stereo not given in full) | 131 | 0.17 | 117 | 22.2 | 0.19 |  | t1/2 [4]: 9.8 h; t1/2 [5]: 5.68 h; Tmax [6]: 1.98 min; Tmax [7]: 0.5 h; Cmax [8]: 1421 ng/mL; Cmax [9]: 70 ng/mL; AUClast [10]: 522 ng·h/mL; AUClast [11]: 257 ng·h/mL; AUC [12]: 558 ng·h/mL; AUC [13]: 281 ng·h/mL
C#C[C@@]1(O)[C@H](O)[C@@H](COP(=O)(N[C@@H](C)C(=O)OC)Oc2ccccc2)O[C@H]1n1ccc2c(N)ncnc21 (stereo not given in full) | > 59.9 | 1.67 | > 86.2 |  | 1.16 | > 100 | 
C#C[C@@]1(O)[C@H](O)[C@@H](COP(=O)(N[C@@H](C(=O)OC)C(C)C)Oc2ccccc2)O[C@H]1n1ccc2c(N)ncnc21 (stereo not given in full) | > 8.55 | 21.6 | > 7.86 |  | 12.7 | > 100 | 
C#C[C@@]1(O)[C@H](O)[C@@H](COP(=O)(N[C@@H](C)C(=O)OCCC)Oc2ccccc2)O[C@H]1n1ccc2c(N)ncnc21 (stereo not given in full) | 105 | 0.45 | < 0.47 | 47.4 | > 100 |  | 
C#C[C@@]1(O)[C@H](O)[C@@H](COP(=O)(N[C@H](Cc2ccccc2)C(=O)OC(C)C)Oc2ccccc2)O[C@H]1n1ccc2c(N)ncnc21 (stereo not given in full) | 2.22 | 6.08 | 1.66 | 13.5 | 8.16 |  | 
C#C[C@@]1(O)[C@H](O)[C@@H](COP(=O)(N[C@@H](C)C(=O)OCCCCC)Oc2ccccc2)O[C@H]1n1ccc2c(N)ncnc21 (stereo not given in full) | 99.9 | 0.53 |  | 52.9 | 0.3 |  | 
C#C[C@@]1(O)[C@H](O)[C@@H](COP(=O)(N[C@H](C)C(=O)OC(C)C)Oc2ccccc2)O[C@H]1n1ccc2c(N)ncnc21 (stereo not given in full) | > 8.75 | 13.3 | > 15.8 |  | 6.31 | > 100 | 
C#C[C@@]1(O)[C@H](O)[C@@H](COP(=O)(N[C@@H](C)C(=O)OC(CC)CC)Oc2ccccc2)O[C@H]1n1ccc2c(N)ncnc21 (stereo not given in full) | > 171 | 1.17 | > 139 |  | 1.44 | > 200 | 
C#C[C@@]1(O)[C@H](O)[C@@H](COP(=O)(N[C@@H](Cc2c[nH]c3ccccc23)C(=O)OC(C)C)Oc2ccccc2)O[C@H]1n1ccc2c(N)ncnc21 (stereo not given in full) | 13.4 | 1.03 | 11.4 | 13.8 | 1.21 |  | 
C#C[C@@]1(O)[C@H](O)[C@@H](COP(=O)(N[C@@H](Cc2ccccc2)C(=O)OC(C)C)Oc2ccccc2)O[C@H]1n1ccc2c(N)ncnc21 (stereo not given in full) | 5.52 | 12.6 | 385 | 69.2 | 0.18 |  | 
C#C[C@@]1(O)[C@H](O)[C@@H](COP(=O)(N[C@@H](C)C(=O)OCC(C)C)Oc2ccccc2)O[C@H]1n1ccc2c(N)ncnc21 (stereo not given in full) | 169 | 0.24 |  |  |  |  | 
C#C[C@@]1(O)[C@H](O)[C@@H](COP(=O)(N[C@H](CCSC)C(=O)OC(C)C)Oc2ccccc2)O[C@H]1n1ccc2c(N)ncnc21 (stereo not given in full) | 0.4 | 49.2 |  |  |  |  | 
C#C[C@@]1(O)[C@H](O)[C@@H](COP(=O)(N[C@@H](C)C(=O)OC(C)C)Oc2ccccc2)O[C@H]1n1ccc2c(N)ncnc21 (stereo not given in full) | 8.73 | 1.78 | 17.1 | 15.5 | 0.91 |  | 
C#C[C@@]1(O)[C@H](O)[C@@H](COP(=O)(N[C@@H](C)C(=O)OCCCC)Oc2ccccc2)O[C@H]1n1ccc2c(N)ncnc21 (stereo not given in full) | > 556 | 0.36 | > 345 |  | 0.58 | > 200 | 
C#C[C@@]1(O)[C@H](O)[C@@H](COP(=O)(N[C@H](C(=O)OC)C(C)C)Oc2ccccc2)O[C@H]1n1ccc2c(N)ncnc21 (stereo not given in full) | > 6.61 | 2.65 | > 72 |  | 1.39 | > 100 | 
C#C[C@@]1(O)[C@H](O)[C@@H](CO)O[C@H]1n1ccc2c(N)ncnc21 | > 87.1 | 0.23 | > 36.2 |  | 0.55 | > 20 | Tmax [14]: 1.98 min; half-life [15]: 9.1 h; half-life [16]: 5.09 h; Tmax [17]: 0.83 h; Cmax [18]: 6760 ng/mL; Cmax [19]: 579 ng/mL; AUC(0-t) [20]: 1970 ng·h/mL; AUC(0-t) [21]: 2700 ng·h/mL; AUC(0-inf) [22]: 2080 ng·h/mL; AUC(0-inf) [23]: 2790 ng·h/mL
C#C[C@@]1(O)[C@H](O)[C@@H](COP(=O)(N[C@@H](C)C(=O)OCCCCCC)Oc2ccccc2)O[C@H]1n1ccc2c(N)ncnc21 (stereo not given in full) | 94.5 | 0.36 | 262 | 34 | 0.13 |  | t1/2 [4]: 4.05 h; t1/2 [5]: 5.39 h; Tmax [6]: 1.98 min; Tmax [7]: 0.14 h; Cmax [8]: 1403 ng/mL; Cmax [9]: 103 ng/mL; AUClast [10]: 359 ng·h/mL; AUClast [11]: 334 ng·h/mL; AUC [12]: 373 ng·h/mL; AUC [13]: 368 ng·h/mL
C#C[C@@]1(O)[C@H](O)[C@@H](COP(=O)(NCC(=O)OC(C)C)Oc2ccccc2)O[C@H]1n1ccc2c(N)ncnc21 (stereo not given in full) | > 14.1 | 7.93 | > 15.1 |  | 6.61 | > 100 | 
C#C[C@@]1(O)[C@H](O)[C@@H](COP(=O)(N[C@H](CC(C)C)C(=O)OC(C)C)Oc2ccccc2)O[C@H]1n1ccc2c(N)ncnc21 (stereo not given in full) | 3.7 | 18.6 | 125 | 68.7 | 0.55 |  | 
C#C[C@@]1(O)[C@H](O)[C@@H](COP(=O)(N[C@@H](C)C(=O)OCC)Oc2ccccc2)O[C@H]1n1ccc2c(N)ncnc21 (stereo not given in full) | 27.1 | 1.23 | 40.2 | 33.4 | 0.83 |  | 
C#C[C@@]1(O)[C@H](O)[C@@H](COP(=O)(N[C@@H](CC(C)C)C(=O)OC(C)C)Oc2ccccc2)O[C@H]1n1ccc2c(N)ncnc21 (stereo not given in full) | 51.2 | 0.41 | 33.8 | 21 | 0.62 |  | 
C#C[C@@]1(O)[C@H](O)[C@@H](COP(=O)(N[C@@H](C)C(=O)OC2CCCC2)Oc2ccccc2)O[C@H]1n1ccc2c(N)ncnc21 (stereo not given in full) |  | 0.25 |  |  | 0.58 |  | 

From ChEMBL document CHEMBL5034026, “Design, synthesis and evaluation of 2'-acetylene-7-deaza-adenosine phosphoamidate derivatives as anti-EV71 and anti-EV-D68 agents” (Eur J Med Chem, 2021)
